Where two headings read alike, the source gives them in different places.
How the values were obtained:
[1] = system: matrix-degrading enzymes (MMP3, MMP9, MMP12, MMP13, and ADAMTS5); assay: mRNA (qRT-PCR) and protein (Western blotting) levels of matrix-degrading enzymes in chondrocytes; type: cell-based, mouse; conditions: for inhibitory effects of TPEN on the ZIP8-mediated expression of matrix-degrading enzymes, effect of pre-incubation of TPEN with the metal salt: Ad-Zip8 chondrocytes, TPEN 1 μM pre-incubated with 1 μM metal ion; for expression of matrix-degrading enzymes caused by the substance itself: chondrocytes, metal salts 100 μM (CdCl2 1 μM)
Procedure: (§1) Adenoviruses expressing mouse Zip8 (Ad-Zip8) and Mtf1 (Ad-Mtf1) were purchased from Vector Biolabs. Mouse articular chondrocytes were cultured for 2 days, infected with empty virus (Ad-C), Ad-Zip8, or Ad-Mtf1 for 2 hours at the indicated multiplicity of infection (MOI), and cultured for 24 hours, followed by further analyses.
Total RNA was extracted from primary cultured chondrocytes using the TRI reagent (Molecular Research Center Inc.). For the isolation of RNA from knee joints, cartilage tissues were scraped with a blade to remove cartilage, and RNA was isolated using the TRI reagent and Purelink RNA mini kit (Ambion). The RNA was reverse transcribed, and the resulting cDNA was amplified by PCR.
(§2) Transcript levels were quantified by qRT-PCR. siRNAs targeting Zip8 and Mtf1 were obtained from Dharmacon and transfected using Lipofectamine 2000. Non-targeting (scrambled) siRNA was used as a negative control. Chondrocytes were transfected by incubating for 6 hours with siRNA and Lipofectamine 2000 (Invitrogen), and infected with adenoviruses as described above. Therapeutic antibodies for obstruction of ZIP8 function were purchased from Santa Cruz Biotechnology and MyBioSource Company, and treated in chondrocytes for 24 hours.
Total cell lysates were prepared in lysis buffer (150 mM NaCl, 1% NP-40, 50 mM Tris, 5 mM NaF) and used to detect cellular proteins (ZIP8, MTF1, and ERK). Secreted proteins (MMP3, MMP13, and ADAMTS5) were detected after trichloroacetic acid (TCA) precipitation from 900 μl of serum-free conditioned medium. All lysis buffers contained a cocktail of protease inhibitors and phosphatase inhibitors (Roche).

MTF1 = target: T1, MTF1 (Mus musculus, UniProt Q07243); assay: MTF1 activity reporter gene assay and immunostaining in chondrocytes; type: cell-based; conditions: for inhibitory effects of TPEN on MTF1 transcriptional activity, effect of pre-incubation of TPEN with the metal salt: Ad-Zip8 chondrocytes, TPEN 1 μM pre-incubated with 1 μM metal ion; for MTF1 transcriptional activity, effect of the substance itself: chondrocytes, reporter gene assay
T1 construct: endogenous in cells; host or cells: primary mouse articular chondrocytes
Procedure: The MTF1 reporter gene assay kit was obtained from SABiosciences. Chondrocytes were transfected for 6 hours with a metal response element (MRE) reporter construct and a constitutive Renilla luciferase construct using Lipofectamine 2000 (Invitrogen). Transfected cells were infected with Ad-Mtf1 or Ad-Zip8 for 2 hours or treated with metal ions. Cells were harvested 24 hours after treatment, and firefly luciferase and Renilla luciferase activities were measured using a Dual Luciferase Assay System (Promega). […] MTF1 was detected by immunofluorescence microscopy. Images were acquired using a fluorescence microscope, and at least 200 cells were examined in multiple fields per condition to quantify the percentage of nuclear MTF1-positive cells.

ZIP8 = target: T2, ZIP8 (Mus musculus, UniProt Q91W10); assay: Zn^2+ imaging and quantitation with FluoZin-3 AM in primary cultured articular chondrocytes; type: cell-based
T2 construct: host or cells: primary mouse articular chondrocytes infected with Ad-Zip8
T2 sequence (Q91W10 20-462): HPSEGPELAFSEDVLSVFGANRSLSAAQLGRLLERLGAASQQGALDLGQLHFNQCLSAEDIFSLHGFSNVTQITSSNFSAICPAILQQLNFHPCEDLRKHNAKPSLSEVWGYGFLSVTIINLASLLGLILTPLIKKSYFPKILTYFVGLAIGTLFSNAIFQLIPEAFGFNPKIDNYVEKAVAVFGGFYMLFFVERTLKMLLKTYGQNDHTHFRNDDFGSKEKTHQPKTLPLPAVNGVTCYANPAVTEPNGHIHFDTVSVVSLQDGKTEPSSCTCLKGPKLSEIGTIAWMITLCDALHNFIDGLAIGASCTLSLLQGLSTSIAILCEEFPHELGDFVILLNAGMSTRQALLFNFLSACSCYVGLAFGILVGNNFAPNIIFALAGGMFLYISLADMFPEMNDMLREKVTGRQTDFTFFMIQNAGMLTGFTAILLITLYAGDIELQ
Procedure: Chondrocytes were maintained as a monolayer in Dulbecco's Modified Eagle's Medium (DMEM) supplemented with 10% fetal bovine serum (FBS) and antibiotics, and cells at culture day 2 were treated as indicated in each experiment.
as §1
Intracellular Zn^2+ was detected using the Zn^2+-selective fluorophore, FluoZin-3 AM (Invitrogen). […] Cells were then washed with Ca^2+- and Mg^2+-free phosphate-buffered saline (PBS) and incubated for an additional 30 minutes at 37° C. Intracellular Zn^2+ images were acquired with a fluorescence microscope, and population-wide fluorescence intensity was measured using a Spectramax Gemini microplate fluorescence reader (Molecular Devices) with excitation at 488 nm, cut-off at 515 nm, and emission at 530 nm.
as §2

[2] = chondrocytes infected with Ad-Zip8

T1 sequence (Q07243 whole entry): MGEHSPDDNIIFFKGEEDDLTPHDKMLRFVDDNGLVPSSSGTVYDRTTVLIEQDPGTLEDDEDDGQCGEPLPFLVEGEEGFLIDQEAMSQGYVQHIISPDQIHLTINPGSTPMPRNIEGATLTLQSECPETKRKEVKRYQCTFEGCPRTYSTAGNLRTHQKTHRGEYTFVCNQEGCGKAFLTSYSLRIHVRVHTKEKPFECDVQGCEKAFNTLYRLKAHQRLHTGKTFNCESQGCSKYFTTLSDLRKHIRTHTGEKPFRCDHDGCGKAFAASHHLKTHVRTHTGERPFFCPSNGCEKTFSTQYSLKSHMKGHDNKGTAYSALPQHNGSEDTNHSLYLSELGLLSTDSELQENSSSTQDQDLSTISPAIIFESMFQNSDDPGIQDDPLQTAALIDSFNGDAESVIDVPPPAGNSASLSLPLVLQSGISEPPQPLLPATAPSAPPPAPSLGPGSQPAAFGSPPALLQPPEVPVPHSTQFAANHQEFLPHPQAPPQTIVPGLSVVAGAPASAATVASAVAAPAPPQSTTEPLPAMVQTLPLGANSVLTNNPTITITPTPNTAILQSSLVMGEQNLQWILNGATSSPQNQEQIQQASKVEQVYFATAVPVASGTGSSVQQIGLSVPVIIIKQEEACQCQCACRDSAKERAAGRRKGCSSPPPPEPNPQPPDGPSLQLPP

Compound | inhibitory effects of TPEN on MTF1 transcriptional activity, effect of pre-incubation of TPEN with the metal salt (MTF1) | MTF1 transcriptional activity, effect of the substance itself (MTF1) | inhibitory effects of TPEN on the ZIP8-mediated expression of matrix-degrading enzymes, effect of pre-incubation of TPEN with the metal salt [1] | expression of matrix-degrading enzymes caused by the substance itself [1] | Ad-Zip8 (ZIP8)-induced upregulation of matrix-degrading enzymes, effect of the test agent [1, 2] | also measured
mithramycin-A |  |  |  |  |  | Ad-Zip8 (ZIP8)-induced upregulation of matrix-degrading enzymes, effect of the test agent [1]: significantly attenuated
[Cl][Cd][Cl] [CdCl2] | not | moderate activation | no significant effects | did not cause a marked expression |  | MMP12 expression ([1]; chondrocytes treated with metal ion): modest induction; expression of matrix-degrading enzymes caused by the substance itself ([1]; listed as Cd^2+): no significant effect
O=C(O)CN(CCN(CC(=O)O)CC(=O)O)CC(=O)O.[Ca] [CaEDTA, calcium-saturated EDTA] |  |  |  |  | blocked | ZIP8-mediated increase in Zn^2+ influx (ZIP8; chondrocytes infected with Ad-Zip8, with the test agent): abolished; IL1β-caused influx of Zn^2+ in chondrocytes, effect of the test agent (ZIP8; chondrocytes treated with IL1β): blocked; Ad-Mtf1-induced upregulation of matrix-degrading enzymes, effect of the test agent ([1]; chondrocytes infected with Ad-Mtf1): abolished; upregulation of MMP3, MMP13, and ADAMTS5 by IL1β, effect of the test agent ([1]; chondrocytes treated with IL1β): abolished
[Cl][Mn][Cl] [MnCl2] | not | no effect | no significant effects | did not cause a marked expression |  | 
c1ccc(-c2ccccn2)nc1 [2,2-bipyridyl] |  |  |  |  | did not affect | 
[Cl][Fe][Cl] [FeCl2] | not | no effect | no significant effects | moderate expression |  | 

Source: patent US9526782B2, “Pharmaceutical compositions comprising inhibitors of zinc-ZIP8-MTF1 as active ingredients for preventing or treating a joint disease” (GWANGJU INSTITUTE OF SCIENCE AND TECHNOLOGY, priority 2014, dated 2016)
